Results taken from US8962843B2, “1,3,4-oxadiazole and 1,3,4-thiadiazole beta-lactamase inhibitors” (priority 2012, dated 2015).
Counter-ions that a name gives are not always drawn.

Experiments:
[1] = system: bacterial strains that express KPC β-lactamases; assay: Standard BLI potentiation MIC / synergy MIC assays, strains expressing KPC β-lactamases; assay type: cell-based; details: in combination with a β-lactam; comparator Avibactam
Protocol: The experimental protocol was performed according to Clinical and Laboratory Standards Institute (CLSI) guidelines with modifications as described below (CLSI guidelines can be derived from the CLSI document M07-A9 published in January 2012: “Methods for Dilution Antimicrobial Susceptibility Tests for Bacteria That Grow Aerobically; Approved Standard-Ninth Edition”).
To prepare for MIC testing, frozen glycerol stocks of clinical isolates (Klebsiella pneumoniae, Eschericia coli, Enterobacter spp, Citrobacter spp, or Pseudomonas aeruginosa) were used to streak for isolated colonies on rich, non-selective, tryptic soy agar containing 5% sheep's blood (TSAB). Frozen glycerol stocks of laboratory engineered, isogenic E. coli strains, which contain cloned β-lactamase expressing plasmids were used to streak for isolated colonies on rich, selective LB agar supplemented with 25 μg/mL tetracycline to maintain the plasmid. All strains were incubated at 37° C. for 18-24 hrs.
On the day of testing, primary cultures were started by scraping off 5-10 colonies from the TSAB plates containing clinical strains or the tetracycline supplemented LB plates containing engineered strains. The clinical strain material was suspended in ˜5 mL of cation adjusted Mueller Hinton Broth (CAMHB) in 14 mL culture tubes. The engineered strain material was suspended in CAMHB (supplemented with 25 μg/mL tetracycline) in 14 mL culture tubes. All strains were incubated at 37° C. with aeration (200 rpm) for ˜2 hrs until the optical density at 600 nm (OD600) was >0.1.
The two compound components of the assay were each diluted in CAMHB and added to the 96-well broth microdilution assay plates. 50 μL of the β-lactam was added to each well of the assay plate in 2-fold dilutions with final concentrations ranging from 128 to 0.13 μg/mL. 25 μL of the BLI compound was added to all wells in the broth microdilution plates at a final concentration of 4 μg/mL. Inoculum cultures were prepared by standardizing the primary cultures to OD600=0.1 and then adding 20 μL of the adjusted primary culture per 1 mL CAMHB for clinical strains or CAMHB (supplemented with tetracycline at 100 μg/mL) for engineered strains, so that the final inoculum density was ˜10^5 colony forming units per milliliter. Diluted inoculum cultures were used to inoculate 25 μl, per well in 96-well broth microdilution assay plates. The final volume of each well was 100 μL and contained a β-lactam at different concentrations, a BLlcompound at 4 μg/mL concentration, the bacterial culture at an OD600 of approximately 0.001 and when necessary tetracycline at 25 μg/mL.
Plates were incubated for 18-20 hours at 37° C. with aeration (200 rpm). Following incubation, growth was confirmed visually placing plates over a viewing apparatus (stand with a mirror underneath) and then OD600 was measured using a SpectraMax 340PC384 plate reader (Molecular Devices, Sunnyvale, Calif.). Growth was defined as turbidity that could be detected with the naked eye or achieving minimum OD600 of 0.1. MIC values were defined as the lowest concentration producing no visible turbidity.
The synergy MIC (sMIC) assay determines the concentration of the BLI required to potentiate the activity of a fixed concentration of a β-lactam antibiotic against β-lactamase producing bacterial strains. The experimental protocol was performed according to Clinical and Laboratory Standards Institute (CLSI) guidelines with modifications as described below (CLSI guidelines can be derived from the CLSI document M07-A9 published in January 2012: “Methods for Dilution Antimicrobial Susceptibility Tests for Bacteria That Grow Aerobically; Approved Standard-Ninth Edition”). […]

[2] = system: bacterial strains that express the class D cephalosporinase OXA-15; assay: Standard BLI potentiation MIC / synergy MIC assays, strains expressing OXA-15; assay type: cell-based, E. coli; details: in combination with a β-lactam; comparator Avibactam (CCC)
In short: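 Broth microdilution in cation-adjusted Mueller Hinton broth per CLSI M07-A9, ~10^5 CFU/mL, 18-20 h at 37 °C with aeration; engineered E. coli carrying β-lactamase plasmids kept on 25 μg/mL tetracycline. β-lactam MIC measured in 2-fold dilutions (128-0.13 μg/mL) with BLI fixed at 4 μg/mL; sMIC titrates BLI against a fixed β-lactam concentration. MIC = lowest concentration without visible turbidity.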

Row | SMILES | activity and/or spectrum of activity against bacterial strains that express KPC β-lactamases, compared with Avibactam [1] | activity against bacterial strains that express the class D cephalosporinase OXA-15, compared with Avibactam [2]
1 | N=C(N)NC1(Cc2nnc([C@@H]3CC[C@@H]4CN3C(=O)N4OS(=O)(=O)O)o2)CC1 [Compound 739, (2S,5R)-2-(5-((1-guanidinocyclopropyl)methyl)-1,3,4-oxadiazol-2-yl)-7-oxo-1,6-diazabicyclo[3.2.1]octan-6-yl hydrogen sulfate] | more active than Avibactam for at least one, bacterial strain that expresses KPC β-lactamase and/or show a better spectrum of activity | more active than Avibactam
2 | O=C1N2C[C@@H](CC[C@H]2c2nnc([C@H]3[C@@H]4CNC[C@@H]43)o2)N1OS(=O)(=O)O [Compound 740, (2S,5R)-2-(5-(3-azabicyclo[3.1.0]hexan-6-yl)-1,3,4-oxadiazol-2-yl)-7-oxo-1,6-diazabicyclo[3.2.1]octan-6-yl hydrogen sulfate] | more active than Avibactam for at least one, bacterial strain that expresses KPC β-lactamase and/or show a better spectrum of activity | more active than Avibactam
3 | N=C(N)N1CC(Cc2nnc([C@@H]3CC[C@@H]4CN3C(=O)N4OS(=O)(=O)O)o2)C1 [Compound 741, (2S,5R)-2-(5-((1-carbamimidoylazetidin-3-yl)methyl)-1,3,4-oxadiazol-2-yl)-7-oxo-1,6-diazabicyclo[3.2.1]octan-6-yl hydrogen sulfate] | more active than Avibactam for at least one, bacterial strain that expresses KPC β-lactamase and/or show a better spectrum of activity | more active than Avibactam
4 | O=C1N2C[C@@H](CC[C@H]2c2nnc(CCC3CNC3)o2)N1OS(=O)(=O)O [Compound 742, (2S,5R)-2-(5-(2-(azetidin-3-ybethyl)-1,3,4-oxadiazol-2-yl)-7-oxo-1,6-diazabicyclo[3.2.1]octan-6-yl hydrogen sulfate] | more active than Avibactam for at least one, bacterial strain that expresses KPC β-lactamase and/or show a better spectrum of activity | more active than Avibactam
5 | O=C1N2C[C@@H](CC[C@H]2c2nnc(CCCC3CNC3)o2)N1OS(=O)(=O)O [Compound 743, (2S,5R)-2-(5-(3-(azetidin-3-yl)propyl)-1,3,4-oxadiazol-2-yl)-7-oxo-1,6-diazabicyclo[3.2.1]octan-6-yl hydrogen sulfate] | more active than Avibactam for at least one, bacterial strain that expresses KPC β-lactamase and/or show a better spectrum of activity | more active than Avibactam
6 | O=C1N2C[C@@H](CC[C@H]2c2nnc(COC3CNC3)o2)N1OS(=O)(=O)O [Compound 744, (2S,5R)-2-(5-((azetidin-3-yloxy)methyl)-1,3,4-oxadiazol-2-yl)-7-oxo-1,6-diazabicyclo[3.2.1]octan-6-yl hydrogen sulfate] | more active than Avibactam for at least one, bacterial strain that expresses KPC β-lactamase and/or show a better spectrum of activity | more active than Avibactam
7 | O=C1N2C[C@@H](CC[C@H]2c2nnc(CCNC3CNC3)o2)N1OS(=O)(=O)O [Compound 745, (2S,5R)-2-(5-(2-(azetidin-3-ylamino)ethyl)-1,3,4-oxadiazol-2-yl)-7-oxo-1,6-diazabicyclo[3.2.1]octan-6-yl hydrogen sulfate] | more active than Avibactam for at least one, bacterial strain that expresses KPC β-lactamase and/or show a better spectrum of activity | more active than Avibactam
8 | N=C(N)N1CC(NCc2nnc([C@@H]3CC[C@@H]4CN3C(=O)N4OS(=O)(=O)O)o2)C1 [Compound 746, (2S,5R)-2-(5-(((1-carbamimidoylazetidin-3-yl)amino)methyl)-1,3,4-oxadiazol-2-yl)-7-oxo-1,6-diazabicyclo[3.2.1]octan-6-yl hydrogen sulfate] | more active than Avibactam for at least one, bacterial strain that expresses KPC β-lactamase and/or show a better spectrum of activity | more active than Avibactam
9 | N=C(N)N[C@H]1C[C@@H](c2nnc([C@@H]3CC[C@@H]4CN3C(=O)N4OS(=O)(=O)O)o2)C1 [Compound 749, (2S,5R)-2-(5-((1s,3R)-3-guanidinocyclobutyl)-1,3,4-oxadiazol-2-yl)-7-oxo-1,6-diazabicyclo[3.2.1]octan-6-yl hydrogen sulfate] | more active than Avibactam for at least one, bacterial strain that expresses KPC β-lactamase and/or show a better spectrum of activity | more active than Avibactam
10 | O=C1N2C[C@@H](CC[C@H]2c2nnc(C3CC4(CNC4)C3)o2)N1OS(=O)(=O)O [Compound 750, (2S,5R)-2-(5-(2-azaspiro[3.3]heptan-6-yl)-1,3,4-oxadiazol-2-yl)-7-oxo-1,6-diazabicyclo[3.2.1]octan-6-yl hydrogen sulfate] | more active than Avibactam for at least one, bacterial strain that expresses KPC β-lactamase and/or show a better spectrum of activity | more active than Avibactam
11 | N[C@H]1C[C@H](Cc2nnc([C@@H]3CC[C@@H]4CN3C(=O)N4OS(=O)(=O)O)o2)C1 [Compound 751, (2S,5R)-2-(5-(((1r,3S)-3-aminocyclobutyl)methyl)-1,3,4-oxadiazol-2-yl)-7-oxo-1,6-diazabicyclo[3.2.1]octan-6-yl hydrogen sulfate] | more active than Avibactam for at least one, bacterial strain that expresses KPC β-lactamase and/or show a better spectrum of activity | more active than Avibactam
12 | N=C(N)NC1CC(Cc2nnc([C@@H]3CC[C@@H]4CN3C(=O)N4OS(=O)(=O)O)o2)C1 (stereo partly drawn) [Compound 752, (2S,5R)-2-(5-((3-guanidinocyclobutyl)methyl)-1,3,4-oxadiazol-2-yl)-7-oxo-1,6-diazabicyclo[3.2.1]octan-6-yl hydrogen sulfate] | more active than Avibactam for at least one, bacterial strain that expresses KPC β-lactamase and/or show a better spectrum of activity | more active than Avibactam
